Columns and labels:
[1] = target: Excitatory amino acid transporter 2 (Homo sapiens, UniProt P43004); test: Activation of human EAAT2 overexpressed in MDCK cells assessed as glutamate reuptake incubated for 5 mins by LCMS assay; assay type: cell-based
[2] = Lipophilicity, log P of the compound; assay type: physicochemical; settings: octanol/water
[3] = Bioavailability in Wistar rat plasma at 10 mg/kg, ip measured up to 24 hrs by LC-MS/MS analysis; assay type: ADME, organism-based
[4] = Tmax in Wistar rat brain at 10 mg/kg, po measured up to 24 hrs by LC-MS/MS analysis; assay type: ADME, organism-based
[5] = Tmax in Wistar rat brain at 10 mg/kg, ip measured up to 24 hrs by LC-MS/MS analysis; assay type: ADME, organism-based
[6] = Cmax in Wistar rat plasma at 10 mg/kg, po measured up to 24 hrs by LC-MS/MS analysis; assay type: ADME, organism-based; set-up: dose 10 mg/kg, time < 24 hrs, route po
[7] = Tmax in Wistar rat plasma at 10 mg/kg, po measured up to 24 hrs by LC-MS/MS analysis; assay type: ADME, organism-based
[8] = AUC in Wistar rat plasma at 5 mg/kg, iv measured up to 24 hrs by LC-MS/MS analysis; assay type: ADME, organism-based; set-up: dose 5 mg/kg, time < 24 hrs, route iv; settings: in vivo
[9] = Half life in Wistar rat plasma at 10 mg/kg, po measured up to 24 hrs by LC-MS/MS analysis; assay type: ADME, organism-based
[10] = Half life in Wistar rat brain at 10 mg/kg, ip measured up to 24 hrs by LC-MS/MS analysis; assay type: ADME, organism-based
[11] = AUC in Wistar rat brain at 5 mg/kg, iv measured up to 24 hrs by LC-MS/MS analysis; assay type: ADME, organism-based; set-up: time < 24 hrs, dose 5 mg/kg, route iv; settings: in vivo
[12] = Oral bioavailability in Wistar rat plasma at 10 mg/kg measured up to 24 hrs by LC-MS/MS analysis; assay type: ADME, organism-based
[13] = Half life in Wistar rat plasma at 5 mg/kg, iv measured up to 24 hrs by LC-MS/MS analysis; assay type: ADME, organism-based
[14] = Tmax in Wistar rat plasma at 10 mg/kg, ip measured up to 24 hrs by LC-MS/MS analysis; assay type: ADME, organism-based
[15] = Cmax in Wistar rat brain at 10 mg/kg, ip measured up to 24 hrs by LC-MS/MS analysis; assay type: ADME, organism-based; set-up: time < 24 hrs, dose 10 mg/kg, route ip
[16] = Half life in Wistar rat plasma at 10 mg/kg, ip measured up to 24 hrs by LC-MS/MS analysis; assay type: ADME, organism-based
[17] = Cmax in Wistar rat brain at 5 mg/kg, iv measured up to 24 hrs by LC-MS/MS analysis; assay type: ADME, organism-based; set-up: dose 5 mg/kg, time < 24 hrs, route iv
[18] = Cmax in Wistar rat plasma at 5 mg/kg, iv measured up to 24 hrs by LC-MS/MS analysis; assay type: ADME, organism-based; set-up: dose 5 mg/kg, time < 24 hrs, route iv
[19] = Tmax in Wistar rat brain at 5 mg/kg, iv measured up to 24 hrs by LC-MS/MS analysis; assay type: ADME, organism-based
[20] = Cmax in Wistar rat brain at 10 mg/kg, po measured up to 24 hrs by LC-MS/MS analysis; assay type: ADME, organism-based; set-up: dose 10 mg/kg, time < 24 hrs, route po
[21] = AUC in Wistar rat plasma at 10 mg/kg, po measured up to 24 hrs by LC-MS/MS analysis; assay type: ADME, organism-based; set-up: time < 24 hrs, dose 10 mg/kg, route po; settings: in vivo
[22] = AUC in Wistar rat brain at 10 mg/kg, ip measured up to 24 hrs by LC-MS/MS analysis; assay type: ADME, organism-based; set-up: dose 10 mg/kg, time < 24 hrs, route ip; settings: in vivo
[23] = Cmax in Wistar rat plasma at 10 mg/kg, ip measured up to 24 hrs by LC-MS/MS analysis; assay type: ADME, organism-based; set-up: dose 10 mg/kg, time < 24 hrs, route ip
[24] = Tmax in Wistar rat plasma at 5 mg/kg, iv measured up to 24 hrs by LC-MS/MS analysis; assay type: ADME, organism-based
[25] = AUC in Wistar rat brain at 10 mg/kg, po measured up to 24 hrs by LC-MS/MS analysis; assay type: ADME, organism-based; set-up: time < 24 hrs, dose 10 mg/kg, route po; settings: in vivo
[26] = Half life in Wistar rat brain at 5 mg/kg, iv measured up to 24 hrs by LC-MS/MS analysis; assay type: ADME, organism-based
[27] = AUC in Wistar rat plasma at 10 mg/kg, ip measured up to 24 hrs by LC-MS/MS analysis; assay type: ADME, organism-based; set-up: time < 24 hrs, dose 10 mg/kg, route ip; settings: in vivo
[28] = Primary phase half life in CD-1 mouse brain at 10 mg/kg, ip measured up to 8 hrs by LC-MS/MS analysis; assay type: ADME, organism-based; settings: read-out: alphat1/2 (converted)
[29] = Cmax in CD-1 mouse brain at 10 mg/kg, ip measured up to 8 hrs by LC-MS/MS analysis; assay type: ADME, organism-based; set-up: dose 10 mg/kg, time < 8 hrs, route ip
[30] = Cmax in CD-1 mouse plasma at 10 mg/kg, ip measured up to 8 hrs by LC-MS/MS analysis; assay type: ADME, organism-based; set-up: dose 10 mg/kg, time < 8 hrs, route ip
[31] = Primary phase half life in CD-1 mouse plasma at 10 mg/kg, ip measured up to 8 hrs by LC-MS/MS analysis; assay type: ADME, organism-based; settings: read-out: alphat1/2 (converted)
[32] = Tmax in CD-1 mouse plasma at 10 mg/kg, ip measured up to 8 hrs by LC-MS/MS analysis; assay type: ADME, organism-based
[33] = AUC in CD-1 mouse plasma at 10 mg/kg, ip measured up to 8 hrs by LC-MS/MS analysis; assay type: ADME, organism-based; set-up: time < 8 hrs, dose 10 mg/kg, route ip; settings: in vivo
[34] = Tmax in CD-1 mouse brain at 10 mg/kg, ip measured up to 8 hrs by LC-MS/MS analysis; assay type: ADME, organism-based
[35] = AUC in CD-1 mouse brain at 10 mg/kg, ip measured up to 8 hrs by LC-MS/MS analysis; assay type: ADME, organism-based; set-up: time < 8 hrs, dose 10 mg/kg, route ip; settings: in vivo
[36] = Half life in Wistar rat brain at 10 mg/kg, po measured up to 24 hrs by LC-MS/MS analysis; assay type: ADME, organism-based

Chain of Excitatory amino acid transporter 2 (P43004 whole entry): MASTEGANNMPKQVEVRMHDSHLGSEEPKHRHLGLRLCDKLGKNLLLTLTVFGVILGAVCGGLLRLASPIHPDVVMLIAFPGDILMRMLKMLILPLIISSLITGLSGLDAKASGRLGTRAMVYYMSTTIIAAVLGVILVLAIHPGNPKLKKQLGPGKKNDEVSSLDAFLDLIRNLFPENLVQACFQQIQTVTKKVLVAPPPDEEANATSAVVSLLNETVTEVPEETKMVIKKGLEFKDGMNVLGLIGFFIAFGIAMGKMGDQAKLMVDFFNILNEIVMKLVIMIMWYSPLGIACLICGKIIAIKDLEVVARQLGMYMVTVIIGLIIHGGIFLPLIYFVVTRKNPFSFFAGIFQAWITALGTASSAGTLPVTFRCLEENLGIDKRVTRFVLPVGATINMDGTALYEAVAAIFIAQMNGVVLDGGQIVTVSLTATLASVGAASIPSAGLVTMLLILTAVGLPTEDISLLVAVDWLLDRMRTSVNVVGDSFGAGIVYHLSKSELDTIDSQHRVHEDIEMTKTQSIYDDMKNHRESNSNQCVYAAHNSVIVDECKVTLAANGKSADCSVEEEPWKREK

Row | SMILES | EC50 [1] [µM] | logP [2] | bioavailability [3] [%] | Tmax [4] [h] | Tmax [5] [h] | Cmax [6] [ng/g] | Tmax [7] [h] | AUC [8] [ng·h/g] | half-life [9] [h] | half-life [10] [h] | AUC [11] [ng·h/g] | bioavailability [12] [%] | half-life [13] [h] | Tmax [14] [h] | Cmax [15] [ng/g] | half-life [16] [h] | Cmax [17] [ng/g] | Cmax [18] [ng/g] | Tmax [19] [h] | Cmax [20] [ng/g] | other results
1 | COc1ccc(NC(=O)C(=O)N2CCN(c3ccccc3)CC2)cc1 | – | – | 58.4 | 1.38 | 0.5 | 42.9 | 3.25 | 919.43 | 5.34 | 2.26 | 443.23 | 17.5 | 6.08 | 0.63 | 204 | 6.22 | 371 | 567 | 0.5 | 25 | AUC [21]: 321.93 ng·h/g; AUC [22]: 429.85 ng·h/g; Cmax [23]: 450 ng/g; Tmax [24]: 0.5 h; AUC [25]: 183 ng·h/g; half-life [26]: 1.52 h; AUC [27]: 1073.21 ng·h/g
2 | COc1ccc2[nH]c(=O)c(C(c3nnnn3CCc3ccccc3)N3CCN(c4cccc(C(F)(F)F)c4)CC3)cc2c1 (stereo not drawn) | – | > 6 | – | – | – | – | – | – | – | – | – | – | – | – | – | – | – | – | – | – | half-life [28]: 3.5 h; Cmax [29]: 30 ng/mL; Cmax [30]: 717 ng/mL; half-life [31]: 3 h; Tmax [32]: 0.5 h; AUC [33]: 1339 ng·h/g; Tmax [34]: 0.5 h; AUC [35]: 86 ng·h/g
3 | CO/N=C(\C(=O)N[C@@H]1C(=O)N2C(C(=O)O)=C(CSc3nc(=O)c(=O)[nH]n3C)CS[C@H]12)c1csc(N)n1 [CEFTRIAXONE] | > 10 | – | – | – | – | – | – | – | – | – | – | – | – | – | – | – | – | – | – | – | –

Further lines, with some results ahead:

Row | EC50 [1] [µM] | logP [2] | bioavailability [3] [%] | Tmax [4] [h] | Tmax [5] [h] | Cmax [6] [ng/g] | Tmax [7] [h] | AUC [8] [ng·h/g] | half-life [9] [h] | half-life [10] [h] | AUC [11] [ng·h/g] | bioavailability [12] [%] | half-life [13] [h] | Tmax [14] [h] | Cmax [15] [ng/g] | half-life [16] [h] | Cmax [17] [ng/g] | Cmax [18] [ng/g] | Tmax [19] [h] | Cmax [20] [ng/g] | SMILES | other results
4 | 1.83 | – | – | – | – | – | – | – | – | – | – | – | – | – | – | – | – | – | – | – | Cc1ccccc1CSc1ccc(-c2ccccn2)nn1 | –
5 | – | > 6 | – | – | – | – | – | – | – | – | – | – | – | – | – | – | – | – | – | – | COc1ccc2[nH]c(=O)c(C(c3nnnn3CCc3ccccc3)N3CCN(C4CCCCC4)CC3)cc2c1 (stereo not drawn) | –
6 | – | – | 85 | 0.88 | 0.5 | 204 | 0.875 | 315.635 | 4.76 | 1.62 | 1959.7 | 80.3 | 0.651 | 0.5 | 2460 | 1.02 | 1220 | 307 | 0.5 | 1170 | COc1ccc(NC(=O)C(=O)NCC(c2ccccc2)N2CCN(C)CC2)cc1 (stereo not drawn) | half-life [36]: 1.81 h; AUC [21]: 507.2 ng·h/g; AUC [22]: 4414.35 ng·h/g; Cmax [23]: 262 ng/g; Tmax [24]: 0.5 h; AUC [25]: 2816.8 ng·h/g; half-life [26]: 1.03 h; AUC [27]: 536.768 ng·h/g
